# Data from ChEMBL document CHEMBL5346973 (J Med Chem, 2023).
# Where a SMILES comes first, the peptide text is derived from it.
# Legend:
# [1] = target: Nicotinic acetylcholine receptor alpha9/alpha10 (Rattus norvegicus, UniProt P43144+Q9JLB5); test: Antagonist activity at rat alpha9alpha10 nACh receptor expressed in Xenopus oocyte assessed as inhibition of acetylcholine-induced response at -70 mV holding potential by voltage-clamp based electrophysiological assay; type: cell-based
# [2] = target: Neuronal acetylcholine receptor subunit alpha-7 (Rattus norvegicus, UniProt Q05941); test: Antagonist activity at rat alpha7 nACh receptor expressed in Xenopus oocyte assessed as inhibition of acetylcholine-induced response at -70 mV holding potential by voltage-clamp based electrophysiological assay; type: cell-based
# Chain of Neuronal acetylcholine receptor subunit alpha-7 (Q05941 whole entry): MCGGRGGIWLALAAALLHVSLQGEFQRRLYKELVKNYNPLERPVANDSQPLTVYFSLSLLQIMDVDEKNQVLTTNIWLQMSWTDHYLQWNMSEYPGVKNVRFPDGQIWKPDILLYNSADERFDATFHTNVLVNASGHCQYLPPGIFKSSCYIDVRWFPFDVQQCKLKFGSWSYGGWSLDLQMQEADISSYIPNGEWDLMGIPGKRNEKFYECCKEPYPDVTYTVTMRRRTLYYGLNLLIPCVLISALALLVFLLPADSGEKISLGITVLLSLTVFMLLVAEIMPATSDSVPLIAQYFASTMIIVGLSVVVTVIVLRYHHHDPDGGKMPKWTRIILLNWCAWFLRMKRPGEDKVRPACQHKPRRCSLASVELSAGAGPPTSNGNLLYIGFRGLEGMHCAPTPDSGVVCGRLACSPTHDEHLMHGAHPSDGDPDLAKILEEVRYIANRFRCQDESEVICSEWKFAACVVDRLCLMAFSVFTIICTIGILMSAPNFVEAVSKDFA
# Chain of Nicotinic acetylcholine receptor alpha9/alpha10 (P43144 whole entry): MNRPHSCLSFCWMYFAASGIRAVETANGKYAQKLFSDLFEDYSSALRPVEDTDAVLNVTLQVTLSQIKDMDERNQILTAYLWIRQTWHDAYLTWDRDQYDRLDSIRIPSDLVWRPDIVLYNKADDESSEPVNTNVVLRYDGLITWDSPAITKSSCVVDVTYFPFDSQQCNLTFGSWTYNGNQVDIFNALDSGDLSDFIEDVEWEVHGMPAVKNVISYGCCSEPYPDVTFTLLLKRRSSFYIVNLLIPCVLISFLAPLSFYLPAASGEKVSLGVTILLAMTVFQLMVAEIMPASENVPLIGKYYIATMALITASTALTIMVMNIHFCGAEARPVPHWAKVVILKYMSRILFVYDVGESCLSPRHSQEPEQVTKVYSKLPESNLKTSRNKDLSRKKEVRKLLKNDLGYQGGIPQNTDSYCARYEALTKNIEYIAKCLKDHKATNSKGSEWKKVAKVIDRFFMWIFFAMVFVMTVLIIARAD
# Chain of Nicotinic acetylcholine receptor alpha9/alpha10 (Q9JLB5 whole entry): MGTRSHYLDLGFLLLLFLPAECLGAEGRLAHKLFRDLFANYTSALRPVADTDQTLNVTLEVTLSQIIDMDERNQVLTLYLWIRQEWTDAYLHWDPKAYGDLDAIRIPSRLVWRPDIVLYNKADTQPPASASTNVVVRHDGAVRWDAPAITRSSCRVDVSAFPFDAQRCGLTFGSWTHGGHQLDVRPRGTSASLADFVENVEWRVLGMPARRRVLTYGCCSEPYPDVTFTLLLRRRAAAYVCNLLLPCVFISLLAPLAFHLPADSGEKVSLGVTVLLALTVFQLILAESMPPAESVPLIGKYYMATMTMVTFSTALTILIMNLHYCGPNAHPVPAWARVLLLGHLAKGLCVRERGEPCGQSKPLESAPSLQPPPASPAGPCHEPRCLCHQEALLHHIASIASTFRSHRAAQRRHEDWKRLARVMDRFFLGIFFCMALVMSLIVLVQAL
Compound,IC50 [1] [nM],IC50 [2] [nM]
CC[C@H](C)[C@@H]1NC(=O)[C@H](CCCNC(=N)N)NC(=O)[C@H](CCCNC(=N)N)NC(=O)[C@@H](NC(=O)[C@H](Cc2ccc(O)cc2)NC(=O)[C@H](CCCNC(=N)N)NC(=O)[C@H](CCCNC(=N)N)NC(=O)[C@H](CCCNC(=N)N)NC(=O)[C@H](CCCNC(=N)N)NC(=O)[C@H](CC(=O)O)NC(=O)[C@H](Cc2ccc(O)cc2)NC(=O)[C@@H]2CCCN2C(=O)[C@H](CO)NC(=O)[C@H](CCCNC(=N)N)NC(=O)[C@@H]2CSSC[C@H](NC(=O)[C@@H](N)[C@@H](C)O)C(=O)N[C@@H](CCCNC(=N)N)C(=O)N[C@@H](CO)C(=O)N[C@@H](CO)C(=O)NCC(=O)N[C@@H](CCCNC(=N)N)C(=O)N[C@@H](Cc3ccc(O)cc3)C(=O)N2)CSSC[C@@H](C(=O)N[C@H](C(=O)O)C(C)C)NC(=O)[C@H](C)NC(=O)[C@H](CC(=O)O)NC(=O)[C@H](C)NC1=O,21,650
CC[C@H](C)[C@@H]1NC(=O)[C@H](CCCNC(=N)N)NC(=O)[C@H](CCCNC(=N)N)NC(=O)[C@@H](NC(=O)[C@H](Cc2ccc(O)cc2)NC(=O)[C@H](CCCNC(=N)N)NC(=O)[C@H](CCCNC(=N)N)NC(=O)[C@H](CCCNC(=N)N)NC(=O)[C@H](CCCNC(=N)N)NC(=O)[C@H](CC(=O)O)NC(=O)[C@H](Cc2ccc(O)cc2)NC(=O)[C@@H]2CCCN2C(=O)[C@@H](CO)NC(=O)[C@H](C)NC(=O)[C@@H]2CSSC[C@H](NC(=O)[C@@H](N)[C@@H](C)O)C(=O)N[C@@H](CCCNC(=N)N)C(=O)N[C@@H](CO)C(=O)N[C@@H](CO)C(=O)NCC(=O)N[C@@H](CCCNC(=N)N)C(=O)N[C@@H](Cc3ccc(O)cc3)C(=O)N2)CSSC[C@@H](C(=O)N[C@H](C(=O)O)C(C)C)NC(=O)[C@H](C)NC(=O)[C@H](CC(=O)O)NC(=O)[C@H]([C@@H](C)O)NC1=O,71,1910
CC[C@H](C)[C@@H]1NC(=O)[C@H](CCCNC(=N)N)NC(=O)[C@H](CCCNC(=N)N)NC(=O)[C@@H](NC(=O)[C@H](Cc2ccc(O)cc2)NC(=O)[C@H](CCCNC(=N)N)NC(=O)[C@H](CCCNC(=N)N)NC(=O)[C@H](CCCNC(=N)N)NC(=O)[C@H](CCCNC(=N)N)NC(=O)[C@H](CC(=O)O)NC(=O)[C@H](Cc2ccc(O)cc2)NC(=O)[C@@H]2CCCN2C(=O)[C@H](CO)NC(=O)[C@H](CCCNC(=N)N)NC(=O)[C@@H]2CSSC[C@H](NC(=O)[C@@H](N)[C@@H](C)O)C(=O)N[C@@H](CCCNC(=N)N)C(=O)N[C@@H](CO)C(=O)N[C@@H](CO)C(=O)N[C@@H](C)C(=O)N[C@@H](CCCNC(=N)N)C(=O)N[C@@H](Cc3ccc(O)cc3)C(=O)N2)CSSC[C@H](C(=O)N[C@H](C(=O)O)C(C)C)NC(=O)[C@H](C)NC(=O)[C@H](CC(=O)O)NC(=O)[C@H]([C@@H](C)O)NC1=O,4.5,1460
"CC[C@H](C)[C@@H]1NC(=O)[C@H](CCCNC(=N)N)NC(=O)[C@H](CCCNC(=N)N)NC(=O)[C@@H]2CSSC[C@H](NC(=O)[C@H](Cc3ccc(O)cc3)NC(=O)[C@H](CCCNC(=N)N)NC(=O)[C@H](C)NC(=O)[C@H](CO)NC(=O)[C@H](CO)NC(=O)[C@H](CCCNC(=N)N)NC(=O)[C@@H](NC(=O)[C@@H](N)[C@@H](C)O)CSSC[C@@H](C(=O)N[C@H](C(=O)O)C(C)C)NC(=O)[C@H](C)NC(=O)[C@H](CC(=O)O)NC(=O)[C@H]([C@@H](C)O)NC1=O)C(=O)N[C@@H](CCCNC(=N)N)C(=O)N[C@@H](CO)C(=O)N1CCC[C@H]1C(=O)N[C@@H](Cc1ccc(O)cc1)C(=O)N[C@@H](CC(=O)O)C(=O)N[C@@H](CCCNC(=N)N)C(=O)N[C@@H](CCCNC(=N)N)C(=O)N[C@@H](CCCNC(=N)N)C(=O)N[C@@H](CCCNC(=N)N)C(=O)N[C@@H](Cc1ccc(O)cc1)C(=O)N2 (HELM PEPTIDE1{T.C.R.S.S.A.R.Y.C.R.S.P.Y.D.R.R.R.R.Y.C.R.R.I.T.D.A.C.V}$PEPTIDE1,PEPTIDE1,2:R3-27:R3|PEPTIDE1,PEPTIDE1,9:R3-20:R3$$$V2.0)",17,5720
"CC[C@H](C)[C@@H]1NC(=O)[C@H](CCCNC(=N)N)NC(=O)[C@H](CCCNC(=N)N)NC(=O)[C@@H](NC(=O)[C@H](Cc2ccc(O)cc2)NC(=O)[C@H](CCCNC(=N)N)NC(=O)[C@H](CCCNC(=N)N)NC(=O)[C@H](CCCNC(=N)N)NC(=O)[C@H](CCCNC(=N)N)NC(=O)[C@H](CC(=O)O)NC(=O)[C@H](C)NC(=O)[C@@H]2CCCN2C(=O)[C@H](CO)NC(=O)[C@H](CCCNC(=N)N)NC(=O)[C@@H]2CSSC[C@H](NC(=O)[C@@H](N)[C@@H](C)O)C(=O)N[C@@H](CCCNC(=N)N)C(=O)N[C@@H](CO)C(=O)N[C@@H](CO)C(=O)NCC(=O)N[C@@H](CCCNC(=N)N)C(=O)N[C@@H](Cc3ccc(O)cc3)C(=O)N2)CSSC[C@@H](C(=O)N[C@H](C(=O)O)C(C)C)NC(=O)[C@H](C)NC(=O)[C@H](CC(=O)O)NC(=O)[C@H]([C@@H](C)O)NC1=O (HELM PEPTIDE1{T.C.R.S.S.G.R.Y.C.R.S.P.A.D.R.R.R.R.Y.C.R.R.I.T.D.A.C.V}$PEPTIDE1,PEPTIDE1,2:R3-9:R3|PEPTIDE1,PEPTIDE1,20:R3-27:R3$$$V2.0)",11,3030
"CC[C@H](C)[C@@H]1NC(=O)[C@H](CCCNC(=N)N)NC(=O)[C@H](CCCNC(=N)N)NC(=O)[C@@H]2CSSC[C@H](NC(=O)[C@H](Cc3ccc(O)cc3)NC(=O)[C@H](CCCNC(=N)N)NC(=O)CNC(=O)[C@H](CO)NC(=O)[C@H](CO)NC(=O)[C@H](CCCNC(=N)N)NC(=O)[C@@H](NC(=O)[C@@H](N)[C@@H](C)O)CSSC[C@@H](C(=O)N[C@H](C(=O)O)C(C)C)NC(=O)[C@H](C)NC(=O)[C@H](CC(=O)O)NC(=O)[C@H]([C@@H](C)O)NC1=O)C(=O)N[C@@H](CCCNC(=N)N)C(=O)N[C@@H](CO)C(=O)N1CCC[C@H]1C(=O)N[C@@H](C)C(=O)N[C@@H](CC(=O)O)C(=O)N[C@@H](CCCNC(=N)N)C(=O)N[C@@H](CCCNC(=N)N)C(=O)N[C@@H](CCCNC(=N)N)C(=O)N[C@@H](CCCNC(=N)N)C(=O)N[C@@H](Cc1ccc(O)cc1)C(=O)N2 (HELM PEPTIDE1{T.C.R.S.S.G.R.Y.C.R.S.P.A.D.R.R.R.R.Y.C.R.R.I.T.D.A.C.V}$PEPTIDE1,PEPTIDE1,2:R3-27:R3|PEPTIDE1,PEPTIDE1,9:R3-20:R3$$$V2.0)",20,4680
CC[C@H](C)[C@@H]1NC(=O)[C@H](CCCNC(=N)N)NC(=O)[C@H](CCCNC(=N)N)NC(=O)[C@@H](NC(=O)[C@H](Cc2ccc(O)cc2)NC(=O)[C@H](C)NC(=O)[C@H](CCCNC(=N)N)NC(=O)[C@H](CCCNC(=N)N)NC(=O)[C@H](CCCNC(=N)N)NC(=O)[C@H](CC(=O)O)NC(=O)[C@H](Cc2ccc(O)cc2)NC(=O)[C@@H]2CCCN2C(=O)[C@H](CO)NC(=O)[C@H](CCCNC(=N)N)NC(=O)[C@@H]2CSSC[C@H](NC(=O)[C@@H](N)[C@@H](C)O)C(=O)N[C@@H](CCCNC(=N)N)C(=O)N[C@@H](CO)C(=O)N[C@@H](CO)C(=O)NCC(=O)N[C@@H](CCCNC(=N)N)C(=O)N[C@@H](Cc3ccc(O)cc3)C(=O)N2)CSSC[C@@H](C(=O)N[C@H](C(=O)O)C(C)C)NC(=O)[C@H](C)NC(=O)[C@H](CC(=O)O)NC(=O)[C@H]([C@@H](C)O)NC1=O,54,4520
CC[C@H](C)[C@@H]1NC(=O)[C@H](CCCNC(=N)N)NC(=O)[C@H](CCCNC(=N)N)NC(=O)[C@@H]2CSSC[C@H](NC(=O)[C@H](Cc3ccc(O)cc3)NC(=O)[C@H](CCCNC(=N)N)NC(=O)CNC(=O)[C@H](CO)NC(=O)[C@H](CO)NC(=O)[C@H](CCCNC(=N)N)NC(=O)[C@@H](NC(=O)[C@@H](N)[C@@H](C)O)CSSC[C@@H](C(=O)N[C@H](C(=O)O)C(C)C)NC(=O)[C@H](C)NC(=O)[C@H](CC(=O)O)NC(=O)[C@H]([C@@H](C)O)NC1=O)C(=O)N[C@@H](CCCNC(=N)N)C(=O)N[C@@H](CO)C(=O)N1CCC[C@H]1C(=O)N[C@@H](Cc1ccc(O)cc1)C(=O)N[C@@H](CC(=O)O)C(=O)N[C@@H](C)C(=O)N[C@@H](CCCNC(=N)N)C(=O)N[C@@H](CCCNC(=N)N)C(=O)N[C@@H](CCCNC(=N)N)C(=O)N[C@@H](Cc1ccc(O)cc1)C(=O)N2,34,6440
CC[C@H](C)[C@@H]1NC(=O)[C@H](CCCNC(=N)N)NC(=O)[C@H](CCCNC(=N)N)NC(=O)[C@@H]2CSSC[C@H](NC(=O)[C@H](Cc3ccc(O)cc3)NC(=O)[C@H](CCCNC(=N)N)NC(=O)CNC(=O)[C@H](CO)NC(=O)[C@H](CO)NC(=O)[C@H](CCCNC(=N)N)NC(=O)[C@@H](NC(=O)[C@H](C)N)CSSC[C@@H](C(=O)N[C@H](C(=O)O)C(C)C)NC(=O)[C@H](C)NC(=O)[C@H](C)NC(=O)[C@H]([C@@H](C)O)NC1=O)C(=O)N[C@@H](CCCNC(=N)N)C(=O)N[C@@H](CO)C(=O)N1CCC[C@H]1C(=O)N[C@@H](Cc1ccc(O)cc1)C(=O)N[C@@H](CC(=O)O)C(=O)N[C@@H](CCCNC(=N)N)C(=O)N[C@@H](CCCNC(=N)N)C(=O)N[C@@H](CCCNC(=N)N)C(=O)N[C@@H](CCCNC(=N)N)C(=O)N[C@@H](Cc1ccc(O)cc1)C(=O)N2,27,5890
CC[C@H](C)[C@@H]1NC(=O)[C@H](CCCNC(=N)N)NC(=O)[C@H](C)NC(=O)[C@@H]2CSSC[C@H](NC(=O)[C@H](Cc3ccc(O)cc3)NC(=O)[C@H](CCCNC(=N)N)NC(=O)CNC(=O)[C@H](CO)NC(=O)[C@H](CO)NC(=O)[C@H](CCCNC(=N)N)NC(=O)[C@@H](NC(=O)[C@@H](N)[C@@H](C)O)CSSC[C@@H](C(=O)N[C@H](C(=O)O)C(C)C)NC(=O)[C@H](C)NC(=O)[C@H](CC(=O)O)NC(=O)[C@H]([C@@H](C)O)NC1=O)C(=O)N[C@@H](CCCNC(=N)N)C(=O)N[C@@H](CO)C(=O)N1CCC[C@H]1C(=O)N[C@@H](Cc1ccc(O)cc1)C(=O)N[C@@H](CC(=O)O)C(=O)N[C@@H](CCCNC(=N)N)C(=O)N[C@@H](CCCNC(=N)N)C(=O)N[C@@H](CCCNC(=N)N)C(=O)N[C@@H](CCCNC(=N)N)C(=O)N[C@@H](Cc1ccc(O)cc1)C(=O)N2,37,> 10000
